Laboratory results taken from ChEMBL document CHEMBL4340520, “Hederagenin amide derivatives as potential antiproliferative agents” (Eur J Med Chem, 2019).
Calls of active or inactive are those of the source. No cut-off for these calls is given here.

How the values were obtained:
SW-1736 = assay: Cytotoxicity against human SW1736 cells assessed as reduction in cell viability after 96 hrs by SRB assay; assay type: functional, cell-based; conditions: SW-1736, 96 h
MCF7 = assay: Cytotoxicity against human MCF7 cells assessed as reduction in cell viability after 96 hrs by SRB assay; assay type: functional, cell-based; conditions: MCF7, 96 h
NIH3T3 = assay: Cytotoxicity against mouse NIH/3T3 cells assessed as reduction in cell viability after 96 hrs by SRB assay; assay type: cell-based; conditions: NIH3T3, 96 h
HT-29 [1] = assay: Cytotoxicity against human HT-29 cells assessed as reduction in cell viability after 96 hrs by SRB assay; assay type: functional, cell-based; conditions: HT-29, 96 h
A2780 [2] = assay: Cytotoxicity against human A2780 cells assessed as reduction in cell viability after 96 hrs by SRB assay; assay type: functional, cell-based; conditions: A2780, 96 h
FaDu = assay: Cytotoxicity against human FADU cells assessed as reduction in cell viability after 96 hrs by SRB assay; assay type: functional, cell-based
A2780 [3] = assay: Potency index, ratio of hederagenin EC50 to test compound EC50 for cytotoxicity against human A2780 cells; assay type: functional
A2780 [4] = assay: Potency index, ratio of acetylated hederagenin EC50 to test compound EC50 for cytotoxicity against human A2780 cells; assay type: functional
A2780 [5] = assay: Potency index, ratio of betulinic acid EC50 to test compound EC50 for cytotoxicity against human A2780 cells; assay type: functional
A2780 [6] = assay: Induction of apoptosis in human A2780 cells assessed as increase in secondary necrotic cells at 6 uM after 24 hrs by Annexin V-FITC/propidium iodide staining-based flow cytometric analysis; assay type: functional, cell-based
A2780 [7] = assay: Cytotoxicity against human A2780 cells assessed as cell membrane permeability at 6 uM after 24 hrs by acridine orange/propidium iodide staining based fluorescence microscopic method; assay type: functional
HT-29 [8] = assay: Potency index, ratio of betulinic acid EC50 to test compound EC50 for cytotoxicity against human HT-29 cells; assay type: functional
HT-29 [9] = assay: Cytotoxicity against human HT-29 cells assessed as cell membrane permeability at 2.5 to 5 uM after 24 hrs by acridine orange/propidium iodide staining based fluorescence microscopic method; assay type: functional
HT-29 [10] = assay: Potency index, ratio of hederagenin EC50 to test compound EC50 for cytotoxicity against human HT-29 cells; assay type: functional

| SMILES | EC50 (SW-1736) [µM] | EC50 (MCF7) [µM] | EC50 (NIH3T3) [µM] | EC50 (HT-29 [1]) [µM] | EC50 (A2780 [2]) [nM] | EC50 (FaDu) [µM] | Ratio EC50 (A2780 [3]) | Ratio EC50 (A2780 [4]) | Ratio EC50 (A2780 [5]) | Activity (A2780 [6]) | Activity (A2780 [7]) | Ratio EC50 (HT-29 [8]) | Activity (HT-29 [9]) | Ratio EC50 (HT-29 [10]) |
| --- | --- | --- | --- | --- | --- | --- | --- | --- | --- | --- | --- | --- | --- | --- |
| CC(=O)OC[C@@]1(C)[C@@H]2CC[C@]3(C)[C@H](CC=C4[C@@H]5CC(C)(C)CC[C@]5(C(=O)NCc5cn(Cc6ccccc6[N+](=O)[O-])nn5)CC[C@]43C)[C@@]2(C)CC[C@@H]1OC(C)=O | 3.8 | 2.7 | 2.1 | 1.9 | 1600 | 2.8 |  |  |  |  |  |  |  |  |
| CC(=O)OC[C@@]1(C)[C@@H]2CC[C@]3(C)[C@H](CC=C4[C@@H]5CC(C)(C)CC[C@]5(C(=O)NCc5cn(Cc6ccccc6Br)nn5)CC[C@]43C)[C@@]2(C)CC[C@@H]1OC(C)=O | 2.3 | 3 | 3.4 | 1.9 | 1700 | 2.5 |  |  |  |  |  |  |  |  |
| CC(=O)OC[C@@]1(C)[C@@H]2CC[C@]3(C)[C@H](CC=C4[C@@H]5CC(C)(C)CC[C@]5(C(=O)N5CCNCC5)CC[C@]43C)[C@@]2(C)CC[C@@H]1OC(C)=O | 9 | 6.1 | 10.8 | 6.7 | 1900 | 5.3 |  |  |  |  |  |  |  |  |
| CC1(C)CC[C@]2(C(=O)O)CC[C@]3(C)C(=CC[C@@H]4[C@@]5(C)CC[C@H](O)[C@@](C)(CO)[C@@H]5CC[C@]43C)[C@@H]2C1 [HEDERAGENIN] | > 30 | > 30 | > 30 | > 30 | > 30000 | > 30 |  |  |  |  |  |  |  |  |
| CC(=O)OC[C@@]1(C)[C@@H]2CC[C@]3(C)[C@H](CC=C4[C@@H]5CC(C)(C)CC[C@]5(C(=O)NCCN5CCCCC5)CC[C@]43C)[C@@]2(C)CC[C@@H]1OC(C)=O | 4.7 | 3.2 | 3.2 | 2.1 | 2100 | 4.3 |  |  |  |  |  |  |  |  |
| CC(=O)OC[C@@]1(C)[C@@H]2CC[C@]3(C)[C@H](CC=C4[C@@H]5CC(C)(C)CC[C@]5(C(=O)N5CCCC5)CC[C@]43C)[C@@]2(C)CC[C@@H]1OC(C)=O | 1.7 | 2.5 | 9.6 | 1.8 | 400 | 1.6 | 70 | 29 | 32 |  |  |  |  |  |
| CC(=O)OC[C@@]1(C)[C@@H]2CC[C@]3(C)[C@H](CC=C4[C@@H]5CC(C)(C)CC[C@]5(C(=O)O)CC[C@]43C)[C@@]2(C)CC[C@@H]1OC(C)=O | 17.7 | 9.8 | 9.6 | 19 | 11900 | 15.4 |  |  |  |  |  |  |  |  |
| CC(=O)OC[C@@]1(C)[C@@H]2CC[C@]3(C)[C@H](CC=C4[C@@H]5CC(C)(C)CC[C@]5(C(=O)NCCc5ccccn5)CC[C@]43C)[C@@]2(C)CC[C@@H]1OC(C)=O | 3.4 | 3.5 | 7.1 | 3.3 | 1500 | 2.8 |  |  |  |  |  |  |  |  |
| CC(=O)OC[C@@]1(C)[C@@H]2CC[C@]3(C)[C@H](CC=C4[C@@H]5CC(C)(C)CC[C@]5(C(=O)NCCCCN)CC[C@]43C)[C@@]2(C)CC[C@@H]1OC(C)=O | > 30 | > 30 | > 30 | > 30 | > 30000 | > 30 |  |  |  |  |  |  |  |  |
| C=C(C)[C@@H]1CC[C@]2(C(=O)O)CC[C@]3(C)[C@H](CC[C@@H]4[C@@]5(C)CC[C@H](O)C(C)(C)[C@@H]5CC[C@]43C)[C@@H]12 [BETULINIC ACID] |  | 12 |  |  |  |  |  |  |  |  |  |  |  |  |
| CC1(C)CC[C@]2(C(=O)NCCCCN)CC[C@]3(C)C(=CC[C@@H]4[C@@]5(C)CC[C@H](O)[C@@](C)(CO)[C@@H]5CC[C@]43C)[C@@H]2C1 | 12.2 | > 30 | 7 | 6.1 | 9700 | > 30 |  |  |  |  |  |  |  |  |
| COC(=O)C(NC(=O)[C@]12CCC(C)(C)C[C@H]1C1=CC[C@@H]3[C@@]4(C)CC[C@H](OC(C)=O)[C@@](C)(COC(C)=O)[C@@H]4CC[C@@]3(C)[C@]1(C)CC2)c1ccccc1 (some centres not stated) | 6.3 | 5.7 | 12.9 | 5.1 | 3300 | 4.6 |  |  |  |  |  |  |  |  |
| COC(=O)CNC(=O)[C@]12CCC(C)(C)C[C@H]1C1=CC[C@@H]3[C@@]4(C)CC[C@H](OC(C)=O)[C@@](C)(COC(C)=O)[C@@H]4CC[C@@]3(C)[C@]1(C)CC2 | 4.8 | 4.5 | 8.4 | 3.7 | 1700 | 3.1 |  |  |  |  |  |  |  |  |
| CC(=O)OC[C@@]1(C)[C@@H]2CC[C@]3(C)[C@H](CC=C4[C@@H]5CC(C)(C)CC[C@]5(C(=O)NCc5cn(Cc6ccccc6Cl)nn5)CC[C@]43C)[C@@]2(C)CC[C@@H]1OC(C)=O | 1.8 | 2.6 | 3.6 | 1.7 | 1700 | 2.2 |  |  |  |  |  |  |  |  |
| CC1(C)CC[C@]2(C(=O)N3CCNCC3)CC[C@]3(C)C(=CC[C@@H]4[C@@]5(C)CC[C@H](O)[C@@](C)(CO)[C@@H]5CC[C@]43C)[C@@H]2C1 | > 30 |  | 17.4 | 22.5 | 19400 | > 30 |  |  |  |  |  |  |  |  |
| COC(=O)C(NC(=O)[C@]12CCC(C)(C)C[C@H]1C1=CC[C@@H]3[C@@]4(C)CC[C@H](O)[C@@](C)(CO)[C@@H]4CC[C@@]3(C)[C@]1(C)CC2)c1ccccc1 (some centres not stated) | > 30 |  | > 30 | > 30 | > 30000 | > 30 |  |  |  |  |  |  |  |  |
| CC1(C)CC[C@]2(C(=O)N3CCCCC3)CC[C@]3(C)C(=CC[C@@H]4[C@@]5(C)CC[C@H](O)[C@@](C)(CO)[C@@H]5CC[C@]43C)[C@@H]2C1 | 19.2 | 7.8 | 18.5 | 18.3 | 18200 | 20.8 |  |  |  |  |  |  |  |  |
| CC(=O)OC[C@@]1(C)[C@@H]2CC[C@]3(C)[C@H](CC=C4[C@@H]5CC(C)(C)CC[C@]5(C(=O)N5CCCCC5)CC[C@]43C)[C@@]2(C)CC[C@@H]1OC(C)=O | 7.1 | 6.2 | 15.2 | 5.7 | 2800 | 5.5 |  |  |  |  |  |  |  |  |
| CC(=O)OC[C@@]1(C)[C@@H]2CC[C@]3(C)[C@H](CC=C4[C@@H]5CC(C)(C)CC[C@]5(C(=O)NCCN5CCCC5)CC[C@]43C)[C@@]2(C)CC[C@@H]1OC(C)=O | 3.6 | 2.6 | 2.2 | 1.5 | 1900 | 4 |  |  |  |  |  |  |  |  |
| CC(=O)OC[C@@]1(C)[C@@H]2CC[C@]3(C)[C@H](CC=C4[C@@H]5CC(C)(C)CC[C@]5(C(=O)NCCN5CCOCC5)CC[C@]43C)[C@@]2(C)CC[C@@H]1OC(C)=O | 3.9 | 3.8 | 7.6 | 2.8 | 1200 | 3.3 |  |  |  |  |  |  |  |  |
| CC(=O)OC[C@@]1(C)[C@@H]2CC[C@]3(C)[C@H](CC=C4[C@@H]5CC(C)(C)CC[C@]5(C(=O)NCc5cn(Cc6ccccc6F)nn5)CC[C@]43C)[C@@]2(C)CC[C@@H]1OC(C)=O | 4.7 | 2.8 | 6.9 | 3 | 1300 | 2.8 |  |  |  |  |  |  |  |  |
| COC(=O)CNC(=O)[C@]12CCC(C)(C)C[C@H]1C1=CC[C@@H]3[C@@]4(C)CC[C@H](O)[C@@](C)(CO)[C@@H]4CC[C@@]3(C)[C@]1(C)CC2 | > 30 |  | > 30 | > 30 | > 30000 | > 30 |  |  |  |  |  |  |  |  |
| CC1(C)CC[C@]2(C(=O)N3CCCC3)CC[C@]3(C)C(=CC[C@@H]4[C@@]5(C)CC[C@H](O)[C@@](C)(CO)[C@@H]5CC[C@]43C)[C@@H]2C1 | 3.6 |  | 2.2 | 1.2 | 3000 | 2.8 |  |  |  | Active | Active | 15 | Active | 30 |
